In patent publication US7405236B2, “Indole derivatives comprising an acetylene group” (Hoffman-La Roche Inc., priority 2004, dated 2008) one finds IC50 data, which are given here for two molecules.

Holding throughout (conditions): receptor binding, SPA
Assay [1] deals with T1, PPARδ (Homo sapiens, UniProt Q03181).
T1 construct: PPARδ (aa 139 to 442); made in house; host or cells: E. coli BL21(pLysS)
T1 sequence (Q03181 139-441 limits assumed): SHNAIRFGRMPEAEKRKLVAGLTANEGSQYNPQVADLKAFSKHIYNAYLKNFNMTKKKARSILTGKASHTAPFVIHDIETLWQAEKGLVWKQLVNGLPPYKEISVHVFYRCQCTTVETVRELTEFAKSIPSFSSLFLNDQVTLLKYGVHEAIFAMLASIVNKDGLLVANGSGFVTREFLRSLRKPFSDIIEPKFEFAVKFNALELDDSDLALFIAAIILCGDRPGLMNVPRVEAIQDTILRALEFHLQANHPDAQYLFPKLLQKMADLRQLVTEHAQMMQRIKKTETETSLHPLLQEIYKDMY
The assay is described as follows: PPARδ radioligand binding assay (scintillation proximity, GST-PPARδ-LBD). From the text:
(§1) Background information on the performed assays can be found in: Nichols J S et al. “Development of a scintillation proximity assay for peroxisome proliferator-activated receptor gamma ligand binding domain”, (1998) Anal. Biochem. 257: 112-119.
(§2) Full-length cDNA clones for humans PPARδ and PPARα and mouse PPARγ were obtained by RT-PCR from human adipose and mouse liver cRNA, respectively, cloned into plasmid vectors and verified by DNA sequencing. Bacterial and mammalian expression vectors were constructed to produce glutathione-s-transferase (GST) and Gal4 DNA binding domain proteins fused to the ligand binding domains (LBD) of PPARδ (aa 139 to 442), PPARγ (aa 174 to 476) and PPARα (aa 167 to 469). To accomplish this, the portions of the cloned sequences encoding the LBDs were amplified from the full-length clones by PCR and then subcloned into the plasmid vectors. Final clones were verified by DNA sequence analysis. […]
PPARδ receptor binding was assayed in HNM10 (50 mM Hepes, pH 7.4, 10 mM NaCl, 5 mM MgCl2, 0.15 mg/ml fatty acid-free BSA and 15 mM DTT). […] Radioligand was added and the reaction incubated at RT for 1 h and scintillation proximity counting performed in the presence of test compounds was determined. All binding assays were performed in 96 well plates and the amount of bound ligand was measured on a Packard TopCount using OptiPlates (Packard). […]
Background: Scintillation proximity formats need no separation of bound from free tracer.

For assay [2], the target named is T2, PPARγ (Mus musculus, UniProt P37238).
T2 construct: PPARγ (aa 174 to 476); made in house; host or cells: E. coli BL21(pLysS)
T2 sequence (P37238 204-505): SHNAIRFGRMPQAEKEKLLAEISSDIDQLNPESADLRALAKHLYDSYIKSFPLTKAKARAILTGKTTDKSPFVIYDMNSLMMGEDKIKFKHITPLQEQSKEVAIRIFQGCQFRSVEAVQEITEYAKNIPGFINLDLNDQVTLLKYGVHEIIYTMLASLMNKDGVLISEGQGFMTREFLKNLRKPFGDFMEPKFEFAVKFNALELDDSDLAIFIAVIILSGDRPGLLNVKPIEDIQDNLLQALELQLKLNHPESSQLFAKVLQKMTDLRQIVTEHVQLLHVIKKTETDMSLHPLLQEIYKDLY
Description: PPARγ radioligand binding assay (scintillation proximity, GST-PPARγ-LBD).
From the text: as §1, §2
PPARγ receptor binding was assayed in TKE50 (50 mM Tris-HCl, pH 8, 50 mM KCl, 2 mM EDTA, 0.1 mg/ml fatty acid-free BSA and 10 mM DTT). […] All binding assays were performed in 96 well plates and the amount of bound ligand measured on a Packard TopCount using OptiPlates (Packard). Nonspecific binding was determined in the presence of 10^−4 M unlabelled compound. […]

For assay [3], the target named is T3, PPARα (Homo sapiens, UniProt Q07869).
T3 construct: PPARα (aa 167 to 469); made in house; host or cells: E. coli BL21(pLysS)
T3 sequence (Q07869 167-468 limits assumed): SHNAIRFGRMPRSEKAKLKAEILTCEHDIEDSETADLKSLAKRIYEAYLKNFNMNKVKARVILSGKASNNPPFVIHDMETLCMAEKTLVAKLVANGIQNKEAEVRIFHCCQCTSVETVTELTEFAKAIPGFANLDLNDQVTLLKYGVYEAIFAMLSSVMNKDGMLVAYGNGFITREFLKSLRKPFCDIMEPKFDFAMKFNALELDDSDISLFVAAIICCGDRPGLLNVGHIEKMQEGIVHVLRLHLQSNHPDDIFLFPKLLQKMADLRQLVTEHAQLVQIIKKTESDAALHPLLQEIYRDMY
Description: PPARα radioligand binding assay (scintillation proximity, GST-PPARα-LBD).
From the text: as §1, §2
PPARα receptor binding was assayed in TKE50 (50 mM Tris-HCl, pH 8, 50 mM KCl, 2 mM EDTA, 0.1 mg/ml fatty acid-free BSA and 10 mM DTT). […] All binding assays were performed in 96 well plates and the amount of bound ligand measured on a Packard TopCount using OptiPlates (Packard). Nonspecific binding was determined in the presence of 10^−4 M unlabelled compound. […]

pIC50: −log10 of the molar value.

As usually defined, the pIC50 is the negative decadic logarithm of the IC50, by convention in mol/L. A high value points to a low IC50. For `O=C(O)Cn1ccc2cc(OCCCC#Cc3ccc(OC(F)(F)F)cc3)ccc21` [Example 6, {5-[5-(4-Trifluoromethoxy-phenyl)-pent-4-ynyloxy]-indol-1-yl}-acetic acid], the negative-log IC50 (pIC50) in assay [1] was 6.52; in assay [2], under 5.00; in assay [3] it was 7.13.

Regarding `O=C(O)Cn1ccc2ccc(OCCCC#Cc3cccc(OC(F)(F)F)c3)cc21` [Example 2, {6-[5-(3-Trifluoromethoxy-phenyl)-pent-4-ynyloxy]-indol-1-yl}-acetic acid], the pIC50 in assay [1] is 6.83; in assay [2] it was under 5.00; in assay [3], 6.50.
